The target in the test is EBI2 (Homo sapiens, UniProt P32249). Put plainly: Cell-based luminescent assay (EBI2 modulation). The settings on record: cell-based luminescence; 7a,25-OHC final assay concentration 80 nM; 60 minutes incubation; read-out: IC50. In short, it runs like this: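 Cells plated overnight at 37° C, then exposed to compound at 4-5 uM final with 80 nM 7a,25-OHC agonist for 60 min at 37° C. Luminescence read after 60 min detection at 25° C in the dark; values normalized to neutral and stimulator controls and plate-pattern corrected.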
EBI2, sequence (P32249 whole entry): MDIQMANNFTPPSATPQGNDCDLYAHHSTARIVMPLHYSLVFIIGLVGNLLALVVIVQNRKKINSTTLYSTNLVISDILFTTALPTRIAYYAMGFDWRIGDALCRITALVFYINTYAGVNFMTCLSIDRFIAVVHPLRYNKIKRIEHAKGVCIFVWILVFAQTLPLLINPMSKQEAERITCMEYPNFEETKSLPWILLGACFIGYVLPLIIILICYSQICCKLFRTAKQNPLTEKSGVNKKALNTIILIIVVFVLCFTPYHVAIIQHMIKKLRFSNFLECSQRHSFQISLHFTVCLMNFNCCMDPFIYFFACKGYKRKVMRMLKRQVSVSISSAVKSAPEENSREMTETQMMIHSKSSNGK
For orientation: IC50 means the concentration that inhibits the measured activity by half. Regarding `O=C(C#Cc1cccc(Cl)c1)N1CCN(C(=O)c2ccc(F)cc2C(F)(F)F)CC1` [Compound C157, 3-(3-chlorophenyl)-1-(4-{[4-fluoro-2-(trifluoromethyl)phenyl]carbonyl}piperazinyl)prop-2-yn-1-one], the IC50 was less than 0.1 µM.
Next, “1-(4-{[4-fluoro-2-(trifluoromethyl)phenyl]methyl}piperazinyl)-3-(4-methylphenyl)prop-2-yn-1-one [Compound C459]”: 0.1 to 0.5 µM.
Next, `O=C(C#Cc1cc(F)cc(F)c1)N1CCN(Cc2ccc(Cl)cc2)CC1` [Compound C294, 3-(3,5-difluorophenyl)-1-{4-[(4-chlorophenyl)methyl]piperazinyl}prop-2-yn-1-one]: 0.1 to 0.5 µM.
In the case of `O=C(C#Cc1ccc(F)cc1F)N1CCN(C(=O)c2ccc(Cl)cc2)CC1` [Compound C349, 3-(2,4-difluorophenyl)-1-{4-[(4-chlorophenyl)carbonyl]piperazinyl}prop-2-yn-1-one] it was less than 0.1 µM.
Take `O=C(C#Cc1ccc(Br)cc1)N1CCN(C(=O)c2ccc(Br)cc2)CC1` [Compound C61, 3-(4-bromophenyl)-1-{4-[(4-bromophenyl)carbonyl]piperazinyl}prop-2-yn-1-one]: the IC50 is less than 0.1 µM.
In the case of `O=C(C#Cc1cccc(Cl)c1)N1CCN(C(=O)c2ccc(Cl)cc2)CC1` [Compound C34, 3-(3-chlorophenyl)-1-{4-[(4-chlorophenyl)carbonyl]piperazinyl}prop-2-yn-1-one] it was less than 0.1 µM.
In the case of `O=C(/C=C/c1ccc(Cl)cc1F)N1CCN(C(=O)c2cc3cc(Cl)ccc3[nH]2)CC1` [Compound C300, (2E)-3-(4-chloro-2-fluorophenyl)-1-{4-[(5-chloroindol-2-yl)carbonyl]piperazinyl}prop-2-en-1-one] it was less than 0.1 µM; in that of `O=C(/C=C/c1ccc(Br)cc1)N1CCN(Cc2ccc(Cl)c(Cl)c2)CC1` [Compound C39, (2E)-1-{4-[(3,4-dichlorophenyl)methyl]piperazinyl}-3-(4-bromophenyl)prop-2-en-1-one], less than 0.1 µM; in that of `CCOc1ccc(/C=C/C(=O)N2CCN(S(=O)(=O)c3ccc(Br)cc3)CC2)cc1` [Compound C213, (2E)-1-{4-[(4-bromophenyl)sulfonyl]piperazinyl}-3-(4-ethoxyphenyl)prop-2-en-1-one], less than 0.1 µM.
Next, `O=C(c1cnc2ccccc2c1)N1CCN(Cc2ccc(Cl)cc2)CC1` [Compound C464, 4-[(4-chlorophenyl)methyl]piperazinyl 3-quinolyl ketone]: 0.1 to 0.5 µM; `Cc1ccc2[nH]c(C(=S)N3CCN(C(c4ccccc4)c4ccccc4)CC3)cc2c1` [Compound C158, [4-(diphenylmethyl)piperazinyl](5-methylindol-2-yl)methane-1-thione]: less than 0.1 µM.
In the case of “1-(4-{[4-fluoro-2-(trifluoromethyl)phenyl]carbonyl}piperazinyl)-3-[4-(trifluoromethyl)phenyl]prop-2-yn-1-one [Compound C325]”, the IC50 is less than 0.1 µM.
In the case of “(2E)-1-[4-({[(3,5-difluorophenyl)methyl]amino}methyl)piperidyl]-3-(4-bromophenyl)prop-2-en-1-one [Compound C54]” it was less than 0.1 µM; in that of `O=C(C#Cc1ccc(C(F)(F)F)cc1)N1CCN(C(=O)c2ccc(F)cc2)CC1` [Compound C76, 1-{4-[(4-fluorophenyl)carbonyl]piperazinyl}-3-[4-(trifluoromethyl)phenyl]prop-2-yn-1-one], less than 0.1 µM.
Next, `O=C(Nc1ccc(F)cc1)c1cccc(CN2CCN(C(=O)c3cc4cc(Cl)ccc4[nH]3)CC2)c1` [Compound C187, [3-({4-[(5-chloroindol-2-yl)carbonyl]piperazinyl}methyl)phenyl]-N-(4-fluorophenyl)carboxamide]: 0.5 to 5 µM.
Turning to `COc1ccc(/C=C/C(=O)N2CCN(C(c3ccccc3)c3ccccc3)CC2)cc1` [Compound C17, (2E)-1-[4-(diphenylmethyl)piperazinyl]-3-(4-methoxyphenyl)prop-2-en-1-one], the IC50 was less than 0.1 µM.
Next, `COc1cc(CN2CCN(C(=O)/C=C/c3ccc(Br)cc3)CC2)cc(OC)c1` [Compound C72, (2E)-1-{4-[(3,5-dimethoxyphenyl)methyl]piperazinyl}-3-(4-bromophenyl)prop-2-en-1-one]: less than 0.1 µM; `O=C(C=Cc1ccc2c(c1)OCO2)N1CCN(C(=O)c2ccc(C(F)(F)F)cc2)CC1` [Compound C430, 3-(2H-benzo[3,4-d]1,3-dioxolen-5-yl)-1-(4-{[4-(trifluoromethyl)phenyl]carbonyl}piperazinyl)prop-2-en-1-one]: 0.1 to 0.5 µM.
In the case of `O=C(c1cnc2ccc(Cl)cc2c1)N1CCN(C(c2ccccc2)c2ccccc2)CC1` [Compound C257, 4-(diphenylmethyl)piperazinyl 6-chloro(3-quinolyl) ketone] it was less than 0.1 µM; in that of “(2E)-3-(4-bromophenyl)-1-(4-heptanoylpiperazinyl)prop-2-en-1-one [Compound C80]”, less than 0.1 µM; in that of `O=C(/C=C/c1ccc(Br)cc1)N1CCCN(S(=O)(=O)/C=C/c2ccccc2)CC1` [Compound C355, (2E)-1-{4-[((1E)-2-phenylvinyl)sulfonyl](1,4-diazaperhydroepinyl)}-3-(4-bromophenyl)prop-2-en-1-one], less than 0.1 µM.
Regarding `Cc1ccc(C#CC(=O)N2CCN(C(=O)c3ccc(F)cc3)CC2)cc1` [Compound C38, 1-{4-[(4-fluorophenyl)carbonyl]piperazinyl}-3-(4-methylphenyl)prop-2-yn-1-one], the IC50 is less than 0.1 µM.
On to `O=C(c1cc2cc(F)ccc2s1)N1CCN(C(c2ccccc2)c2ccccc2)CC1` [Compound C156, 4-(diphenylmethyl)piperazinyl 5-fluorobenzo[b]thiophen-2-yl ketone], for which the IC50 is less than 0.1 µM.
With `N#Cc1cccc(C(=O)N2CCN(C(=O)c3cc4cc(Cl)ccc4[nH]3)CC2)c1` [Compound C395, 3-({4-[(5-chloroindol-2-yl)carbonyl]piperazinyl}carbonyl)benzenecarbonitrile], the half-maximal inhibitory concentration (IC50) is less than 0.1 µM.
As to `O=C(c1cc2cc(Cl)ccc2[nH]1)N1CCN(Cc2ccc(C(F)(F)F)c(F)c2)CC1` [Compound C402, 5-chloroindol-2-yl 4-{[3-fluoro-4-(trifluoromethyl)phenyl]methyl}piperazinyl ketone], the IC50 was less than 0.1 µM.
“5-methylindol-2-yl 4-(3-pyridylmethyl)piperazinyl ketone [Compound C458]”: the 50% inhibitory concentration (IC50) lay in the range of 0.1 to 0.5 µM.
On to “3-(3,4-dichlorophenyl)-1-{4-[(4-fluorophenyl)carbonyl]piperazinyl}prop-2-yn-1-one [Compound C93]”, for which the half-maximal inhibitory concentration (IC50) is less than 0.1 µM.
In the case of “(2E)-1-{4-[2-(2-fluorophenyl)ethyl]piperazinyl}-3-phenylprop-2-en-1-one [Compound C361]” it was less than 0.1 µM; in that of `O=C(C#Cc1ccc(F)cc1)N1CCN(C(=O)c2ccc(C(F)(F)F)cc2)CC1` [Compound C253, 3-(4-fluorophenyl)-1-(4-{[4-(trifluoromethyl)phenyl]carbonyl}piperazinyl)prop-2-yn-1-one], less than 0.1 µM; in that of `COc1ccc(/C=C/C(=O)N2CCN(S(=O)(=O)c3ccccc3)CC2)cc1` [Compound E4, (2E)-3-(4-methoxyphenyl)-1-[4-(phenylsulfonyl)piperazinyl]prop-2-en-1-one], less than 0.1 µM.

Source of the values: patent publication US9776979B2, “EBI2 modulators” (Sanford-Burnham Medical Research Institute, priority 2013, dated 2017).
